Data: the Kinase Knowledgebase extract (Sharma et al. 2016)

Assays:
EGFR (human) [1] = target: EGFR (human) (UniProt P00533); settings: mda-mb-231
EGFR (human) [2] = target: EGFR (human) (UniProt P00533); settings: mda-mb-231; remark: listed apart in the source
EGFR (human) [3] = target: EGFR (human) (UniProt P00533); settings: mda-mb-361
EGFR (human) [4] = target: EGFR (human) (UniProt P00533); settings: mda-mb-231; remark: listed apart in the source

Sequence of EGFR (human) (P00533 whole entry, looked up): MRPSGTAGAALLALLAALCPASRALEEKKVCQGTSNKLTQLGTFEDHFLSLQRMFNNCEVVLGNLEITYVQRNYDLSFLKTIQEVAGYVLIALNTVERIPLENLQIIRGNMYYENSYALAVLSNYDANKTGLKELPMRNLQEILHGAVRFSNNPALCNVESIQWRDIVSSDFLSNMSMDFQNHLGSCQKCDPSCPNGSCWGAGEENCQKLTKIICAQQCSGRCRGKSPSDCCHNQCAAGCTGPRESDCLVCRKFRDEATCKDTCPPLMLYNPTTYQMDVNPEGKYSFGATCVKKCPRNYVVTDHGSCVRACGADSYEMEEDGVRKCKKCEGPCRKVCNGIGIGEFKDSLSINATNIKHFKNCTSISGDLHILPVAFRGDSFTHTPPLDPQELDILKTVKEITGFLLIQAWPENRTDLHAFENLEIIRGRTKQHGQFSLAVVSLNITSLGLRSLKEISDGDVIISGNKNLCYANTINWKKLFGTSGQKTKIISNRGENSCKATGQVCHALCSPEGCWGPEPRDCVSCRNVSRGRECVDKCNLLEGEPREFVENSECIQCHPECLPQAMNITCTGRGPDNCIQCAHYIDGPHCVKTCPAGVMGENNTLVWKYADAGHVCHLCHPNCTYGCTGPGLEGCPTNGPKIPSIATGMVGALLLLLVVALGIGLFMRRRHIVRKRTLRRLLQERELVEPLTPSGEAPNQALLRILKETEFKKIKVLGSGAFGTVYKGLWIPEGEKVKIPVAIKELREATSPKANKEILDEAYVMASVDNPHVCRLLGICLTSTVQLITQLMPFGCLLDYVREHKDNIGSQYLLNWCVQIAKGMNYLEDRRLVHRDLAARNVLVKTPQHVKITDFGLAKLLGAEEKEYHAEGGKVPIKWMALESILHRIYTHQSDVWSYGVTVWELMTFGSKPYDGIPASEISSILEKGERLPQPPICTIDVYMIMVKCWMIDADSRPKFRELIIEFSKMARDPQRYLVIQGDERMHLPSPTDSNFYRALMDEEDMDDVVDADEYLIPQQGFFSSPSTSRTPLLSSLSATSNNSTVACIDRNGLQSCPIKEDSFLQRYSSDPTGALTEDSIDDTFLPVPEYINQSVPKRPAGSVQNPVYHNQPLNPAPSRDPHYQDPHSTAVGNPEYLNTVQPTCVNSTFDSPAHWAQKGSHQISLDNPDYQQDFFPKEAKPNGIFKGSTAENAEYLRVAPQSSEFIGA

SMILES | IC50 (EGFR (human) [1]) | IC50 (EGFR (human) [2]) | IC50 (EGFR (human) [3]) | IC50 (EGFR (human) [4])
C/C(O)=C(\C#N)C(=O)Nc1ccc(Cl)cc1 | > 100 µM | > 300 µM | > 300 µM | –
C/C(O)=C(\C#N)C(=O)Nc1cccc(Br)c1 | > 100 µM | > 300 µM | > 300 µM | –
C/C(O)=C(\C#N)C(=O)Nc1ccc(Br)cc1 | > 100 µM | > 300 µM | > 300 µM | –
C/C(O)=C(\C#N)C(=O)Nc1ccccc1F | 74.5 µM | > 300 µM | > 300 µM | –
C/C(O)=C(\C#N)C(=O)Nc1ccccc1Br | > 100 µM | > 300 µM | > 300 µM | –
C/C(O)=C(\C#N)C(=O)Nc1ccc(F)cc1 | > 100 µM | > 300 µM | > 300 µM | –
C/C(O)=C(\C#N)C(=O)Nc1ccccc1Cl | > 100 µM | > 300 µM | > 300 µM | –
C/C(O)=C(\C#N)C(=O)Nc1ccc(OC(F)(F)F)cc1 | – | 53.4 µM | 26.3 µM | 28.4 µM
C/C(O)=C(\C#N)C(=O)Nc1cccc(Cl)c1 | > 100 µM | > 300 µM | > 300 µM | –
C/C(O)=C(\C#N)C(=O)Nc1cccc(C(F)(F)F)c1 | > 100 µM | > 300 µM | > 300 µM | –
C/C(O)=C(\C#N)C(=O)Nc1ccccc1 | > 100 µM | > 300 µM | > 300 µM | –
C/C(O)=C(\C#N)C(=O)Nc1cc(Br)ccc1Br | > 100 µM | > 300 µM | > 300 µM | –
C/C(O)=C(\C#N)C(=O)Nc1ccccc1C(F)(F)F | > 100 µM | > 300 µM | > 300 µM | –
C/C(O)=C(\C#N)C(=O)Nc1ccc(C(F)(F)F)cc1 | 5.4 µM | 199 µM | 190 µM | 97 µM
C/C(O)=C(\C#N)C(=O)Nc1cccc(F)c1 | > 100 µM | > 300 µM | > 300 µM | –
